Data on 24 compounds can be found in US11897862B2 (Gilead Sciences, Inc., priority 2022, dated 2024).

The target of one assay is T1, IKZF1 (Homo sapiens, UniProt Q13422+Q96SW2).
T1 construct: expressed in transfected cells
Description: HEK293 HiBiT in vitro degradation of IKZF1. Type of assay: cell-based. Particulars: for Dmax: HEK293, HEK293 HiBiT, maximum degradation at the highest concentration tested; for DC50: HEK293 HiBiT, 18-24 hr incubation, normalized to DMSO control, read-out: IKZF1 EC50. The method, boiled down: (§1)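 Read-out: Nano-Glo lytic HiBiT luminescence after 18-24 h compound exposure at 37 °C, fitted to EC50 and Dmax. Cells were Flp-In T-REx HEK293 expressing linker-HiBiT fused to the C-terminus of each target, doxycycline-induced ([…] final) overnight beforehand.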
On the technique in general: With HiBiT, luminescence reflects the tagged protein that the partner subunit can reach.

The next assay concerns the target IKZF2 (Homo sapiens, UniProt Q96SW2+Q9UKS7). Description: HEK293 HiBiT in vitro degradation of IKZF2. Type of assay: cell-based. More on the design: expressed in transfected cells. Conditions: for Dmax: HEK293, HEK293 HiBiT, maximum degradation at the highest concentration tested; for DC50: HEK293 HiBiT, 18-24 hr incubation, normalized to DMSO control, read-out: IKZF2 EC50. In outline: as §1

Molecules are shown by their SMILES.

T1 sequence (Q13422 whole entry): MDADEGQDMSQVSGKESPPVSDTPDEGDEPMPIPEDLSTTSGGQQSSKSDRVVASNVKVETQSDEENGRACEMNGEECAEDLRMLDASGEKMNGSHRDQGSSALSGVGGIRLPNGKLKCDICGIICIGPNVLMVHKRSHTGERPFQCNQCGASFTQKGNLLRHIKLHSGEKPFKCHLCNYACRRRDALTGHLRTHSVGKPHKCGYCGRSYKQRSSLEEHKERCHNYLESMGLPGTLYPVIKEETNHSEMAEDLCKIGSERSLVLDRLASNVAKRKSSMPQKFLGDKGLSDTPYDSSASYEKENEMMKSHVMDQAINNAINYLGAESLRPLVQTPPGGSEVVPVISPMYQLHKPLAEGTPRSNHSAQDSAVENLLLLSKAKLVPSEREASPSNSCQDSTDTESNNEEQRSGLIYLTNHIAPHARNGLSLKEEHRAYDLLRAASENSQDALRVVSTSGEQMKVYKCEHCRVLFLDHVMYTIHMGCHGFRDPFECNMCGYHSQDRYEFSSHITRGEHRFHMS
T1 sequence (Q96SW2 whole entry): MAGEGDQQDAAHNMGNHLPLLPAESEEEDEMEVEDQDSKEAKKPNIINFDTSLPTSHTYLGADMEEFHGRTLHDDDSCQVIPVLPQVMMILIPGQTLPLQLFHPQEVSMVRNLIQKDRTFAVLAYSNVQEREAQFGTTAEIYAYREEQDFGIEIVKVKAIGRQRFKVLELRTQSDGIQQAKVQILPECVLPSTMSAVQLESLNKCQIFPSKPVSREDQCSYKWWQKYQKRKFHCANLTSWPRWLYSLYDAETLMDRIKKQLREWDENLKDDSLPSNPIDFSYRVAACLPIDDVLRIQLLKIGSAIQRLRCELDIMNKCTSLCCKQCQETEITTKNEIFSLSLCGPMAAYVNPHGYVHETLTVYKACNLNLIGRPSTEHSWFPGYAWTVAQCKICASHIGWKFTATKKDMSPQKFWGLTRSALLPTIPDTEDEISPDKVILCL
T1 sequence (Q16531 whole entry partner): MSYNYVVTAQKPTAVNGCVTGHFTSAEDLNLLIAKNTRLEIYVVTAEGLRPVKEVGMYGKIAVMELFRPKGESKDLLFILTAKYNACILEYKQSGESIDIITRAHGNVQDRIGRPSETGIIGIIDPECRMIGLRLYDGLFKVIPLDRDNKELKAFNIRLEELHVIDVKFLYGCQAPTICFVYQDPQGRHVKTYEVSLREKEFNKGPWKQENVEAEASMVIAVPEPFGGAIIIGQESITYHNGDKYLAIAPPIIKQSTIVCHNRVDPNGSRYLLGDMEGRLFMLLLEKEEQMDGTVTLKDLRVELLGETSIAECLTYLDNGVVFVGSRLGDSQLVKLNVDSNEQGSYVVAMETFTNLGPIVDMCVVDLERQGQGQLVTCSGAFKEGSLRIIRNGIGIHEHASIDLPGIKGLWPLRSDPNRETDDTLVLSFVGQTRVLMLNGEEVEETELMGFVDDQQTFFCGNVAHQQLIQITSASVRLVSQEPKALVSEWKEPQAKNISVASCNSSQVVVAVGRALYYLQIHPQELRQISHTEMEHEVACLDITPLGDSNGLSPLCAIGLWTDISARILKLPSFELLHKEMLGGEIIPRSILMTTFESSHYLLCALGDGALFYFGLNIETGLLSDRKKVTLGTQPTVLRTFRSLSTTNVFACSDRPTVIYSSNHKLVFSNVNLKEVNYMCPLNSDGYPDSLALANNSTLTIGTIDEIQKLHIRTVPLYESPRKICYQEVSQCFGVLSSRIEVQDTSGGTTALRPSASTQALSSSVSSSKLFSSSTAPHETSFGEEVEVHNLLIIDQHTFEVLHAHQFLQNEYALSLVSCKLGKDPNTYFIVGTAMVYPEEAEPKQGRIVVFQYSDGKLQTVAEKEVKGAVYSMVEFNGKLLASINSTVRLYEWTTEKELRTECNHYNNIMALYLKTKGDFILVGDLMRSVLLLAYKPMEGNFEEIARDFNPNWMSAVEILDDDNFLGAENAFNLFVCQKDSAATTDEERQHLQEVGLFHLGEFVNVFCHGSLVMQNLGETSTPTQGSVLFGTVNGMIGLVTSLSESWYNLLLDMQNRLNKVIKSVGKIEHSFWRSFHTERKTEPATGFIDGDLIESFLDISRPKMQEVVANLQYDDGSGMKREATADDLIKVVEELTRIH
Chain of IKZF2 (Q9UKS7 1-500 isoform Q9UKS7-2): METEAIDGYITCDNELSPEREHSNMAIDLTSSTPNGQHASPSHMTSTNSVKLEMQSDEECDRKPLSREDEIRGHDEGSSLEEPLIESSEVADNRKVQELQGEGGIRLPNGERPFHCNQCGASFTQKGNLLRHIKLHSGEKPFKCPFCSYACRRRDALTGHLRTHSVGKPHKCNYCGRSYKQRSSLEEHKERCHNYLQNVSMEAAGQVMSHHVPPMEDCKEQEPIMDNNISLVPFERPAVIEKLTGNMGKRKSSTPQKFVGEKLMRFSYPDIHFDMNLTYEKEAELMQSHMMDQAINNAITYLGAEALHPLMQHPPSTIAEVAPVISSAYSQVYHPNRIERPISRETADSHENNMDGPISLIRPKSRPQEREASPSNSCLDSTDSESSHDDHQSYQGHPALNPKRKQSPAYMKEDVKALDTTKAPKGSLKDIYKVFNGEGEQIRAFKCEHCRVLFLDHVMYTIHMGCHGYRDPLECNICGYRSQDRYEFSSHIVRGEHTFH
Chain of IKZF2 (Q96SW2 whole entry): as the sequence (Q96SW2 whole entry) above
Chain of IKZF2 (Q16531 whole entry partner): as the sequence (Q16531 whole entry partner) above

`O=C1CCC(N2Cc3cc(C[C@H]4CCCC[C@@H]4NC4CC5CC(C5)C4)ccc3C2=O)C(=O)N1` (stereo partly drawn) [Example 29, 3-(5-(((1R,2S)-2-(bicyclo[3.1.1]heptan-3-ylamino)cyclohexyl)methyl)-1-oxoisoindolin-2-yl)piperidine-2,6-dione]: on IKZF1, the Dmax is 39% and the DC50 amounted to 574 nM. Also, on IKZF2, the Dmax was 96% and the DC50 was 5 nM.
Turning to `O=C1CCC(N2Cc3cc(C[C@H]4CCCC[C@@H]4N4CC(Oc5ccccc5Cl)C4)ccc3C2=O)C(=O)N1` (stereo partly drawn) [Example 30, 3-(5-(((1R,2S)-2-(3-(2-chlorophenoxy)azetidin-1-yl)cyclohexyl)methyl)-1-oxoisoindolin-2-yl)piperidine-2,6-dione], on IKZF1, the greatest degradation seen (Dmax) was found to be 34% and the DC50 turned out to be 42 nM. Moreover, at IKZF2, the Dmax worked out at 81% and the DC50 came out at 29 nM.
Regarding `CCOC1CN([C@H]2CCCC[C@@H]2Cc2ccc3c(c2)CN(C2CCC(=O)NC2=O)C3=O)C1` (stereo partly drawn) [Example 31, 3-(5-(((1R,2S)-2-(3-ethoxyazetidin-1-yl)cyclohexyl)methyl)-1-oxoisoindolin-2-yl)piperidine-2,6-dione], the DC50 was greater than 1000 nM on IKZF1 and 30 nM on IKZF2. In addition, on IKZF2, the Dmax was 85%.
On the same counts, the results for `O=C1CCC(N2Cc3cc(C[C@H]4CCCC[C@@H]4N4CC(Oc5ccccc5)C4)ccc3C2=O)C(=O)N1` (stereo partly drawn) [Example 32, 3-(1-oxo-5-(((1R,2S)-2-(3-phenoxyazetidin-1-yl)cyclohexyl)methyl)isoindolin-2-yl)piperidine-2,6-dione] are greater than 1000 nM, 21 nM and 90%.
On the same counts, the results for `O=C1CCC(N2Cc3cc(C[C@H]4CCCC[C@@H]4N4CC(OCc5ccccc5)C4)ccc3C2=O)C(=O)N1` (stereo partly drawn) [Example 33, 3-(5-(((1R,2S)-2-(3-(benzyloxy)azetidin-1-yl)cyclohexyl)methyl)-1-oxoisoindolin-2-yl)piperidine-2,6-dione] are greater than 1000 nM, 18 nM and 82%.
As for `O=C1CCC(N2Cc3cc(C[C@H]4CCCC[C@@H]4N4CC5(CN(Cc6ccccc6Cl)C5)C4)ccc3C2=O)C(=O)N1` (stereo partly drawn) [Example 34, 3-(5-(((1R,2S)-2-(6-(2-chlorobenzyl)-2,6-diazaspiro[3.3]heptan-2-yl)cyclohexyl)methyl)-1-oxoisoindolin-2-yl)piperidine-2,6-dione], the Dmax came out at 29% at IKZF1 and 80% at IKZF2. The DC50 at IKZF1 was determined as 51 nM; at IKZF2, 28 nM.
In the same order, the values of `O=C1CCC(N2Cc3cc(C[C@H]4CCCC[C@@H]4NCc4cscn4)ccc3C2=O)C(=O)N1` (stereo partly drawn) [Example 36, 3-(1-oxo-5-(((1R,2S)-2-((thiazol-4-ylmethyl)amino)cyclohexyl)methyl)isoindolin-2-yl)piperidine-2,6-dione] are 33%, 89%, 101 nM and 46 nM.
Consider `O=C1CCC(N2Cc3cc(C[C@H]4CCCC[C@@H]4NCc4nccs4)ccc3C2=O)C(=O)N1` (stereo partly drawn) [Example 37, 3-(1-oxo-5-(((1R,2S)-2-((thiazol-2-ylmethyl)amino)cyclohexyl)methyl)isoindolin-2-yl)piperidine-2,6-dione], for which the DC50 at IKZF1 is greater than 1000 nM; on IKZF2 it was 172 nM. In addition, the Dmax on IKZF2 worked out at 69%.
Turning to `Cn1ccc(CN[C@H]2CCCC[C@@H]2Cc2ccc3c(c2)CN(C2CCC(=O)NC2=O)C3=O)n1` (stereo partly drawn) [Example 38, 3-(5-(((1R,2S)-2-(((1-methyl-1H-pyrazol-3-yl)methyl)amino)cyclohexyl)methyl)-1-oxoisoindolin-2-yl)piperidine-2,6-dione], on IKZF1, the DC50 is greater than 1000 nM. In addition, on IKZF2, the maximal degradation (Dmax) was determined as 97% and the DC50 turned out to be 192 nM.
Take `Cn1nccc1CN[C@H]1CCCC[C@@H]1Cc1ccc2c(c1)CN(C1CCC(=O)NC1=O)C2=O` (stereo partly drawn) [Example 39, 3-(5-(((1R,2S)-2-(((1-methyl-1H-pyrazol-5-yl)methyl)amino)cyclohexyl)methyl)-1-oxoisoindolin-2-yl)piperidine-2,6-dione]: at IKZF1, the Dmax amounted to 34% and the DC50 turned out to be 265 nM. Moreover, on IKZF2, the Dmax is 86% and the DC50 amounted to 47 nM.
For the compound `O=C1CCC(N2Cc3cc(C[C@H]4CCCC[C@@H]4NCc4ccncc4)ccc3C2=O)C(=O)N1` (stereo partly drawn) [Example 40, 3-(1-oxo-5-(((1R,2S)-2-((pyridin-4-ylmethyl)amino)cyclohexyl)methyl)isoindolin-2-yl)piperidine-2,6-dione], the DC50 at IKZF1 is greater than 1000 nM. On IKZF2, the Dmax was 81% and the DC50 worked out at 45 nM.
Regarding `O=C1CCC(N2Cc3cc(C[C@H]4CCCC[C@@H]4NCc4cccnc4)ccc3C2=O)C(=O)N1` (stereo partly drawn) [Example 41, 3-(1-oxo-5-(((1R,2S)-2-((pyridin-3-ylmethyl)amino)cyclohexyl)methyl)isoindolin-2-yl)piperidine-2,6-dione], on IKZF1, the greatest degradation seen (Dmax) came out at 44% and the DC50 was determined as 216 nM. Besides, on IKZF2, the greatest degradation seen (Dmax) was determined as 90% and the DC50 turned out to be 24 nM.
On to `Cn1cc(CN[C@H]2CCCC[C@@H]2Cc2ccc3c(c2)CN(C2CCC(=O)NC2=O)C3=O)cn1` (stereo partly drawn) [Example 42, 3-(5-(((1R,2S)-2-(((1-methyl-1H-pyrazol-4-yl)methyl)amino)cyclohexyl)methyl)-1-oxoisoindolin-2-yl)piperidine-2,6-dione], for which the DC50 was greater than 1000 nM at IKZF1 and 126 nM on IKZF2. In addition, at IKZF2, the greatest degradation seen (Dmax) was 78%.
For `O=C1CCC(N2Cc3cc(C[C@H]4CCCC[C@@H]4NCc4c(F)cncc4F)ccc3C2=O)C(=O)N1` (stereo partly drawn) [Example 43, 3-(5-(((1R,2S)-2-(((3,5-difluoropyridin-4-yl)methyl)amino)cyclohexyl)methyl)-1-oxoisoindolin-2-yl)piperidine-2,6-dione], the DC50 on IKZF1 is greater than 1000 nM. Also, at IKZF2, the Dmax worked out at 45% and the DC50 was 91 nM.
In the same order, the values of `O=C1CCC(N2Cc3cc(C[C@H]4CCCC[C@@H]4NCc4ncc(F)cc4F)ccc3C2=O)C(=O)N1` (stereo partly drawn) [Example 44, 3-(5-(((1R,2S)-2-(((3,5-difluoropyridin-2-yl)methyl)amino)cyclohexyl)methyl)-1-oxoisoindolin-2-yl)piperidine-2,6-dione] are greater than 1000 nM, 60% and 67 nM.
With `O=C1CCC(N2Cc3cc(C[C@H]4CCCC[C@@H]4NCc4ccccn4)ccc3C2=O)C(=O)N1` (stereo partly drawn) [Example 45, 3-(1-oxo-5-(((1R,2S)-2-((pyridin-2-ylmethyl)amino)cyclohexyl)methyl)isoindolin-2-yl)piperidine-2,6-dione], the DC50 at IKZF1 was greater than 1000 nM. In addition, at IKZF2, the Dmax amounted to 71% and the DC50 was determined as 131 nM.
For the compound `O=C1CCC(N2Cc3cc(C[C@H]4CCCC[C@@H]4NC4CC4)ccc3C2=O)C(=O)N1` (stereo partly drawn) [Example 47, 3-(5-(((1R,2S)-2-(cyclopropylamino)cyclohexyl)methyl)-1-oxoisoindolin-2-yl)piperidine-2,6-dione], the DC50 on IKZF1 was greater than 1000 nM. Besides, on IKZF2, the Dmax came out at 93% and the DC50 was found to be 6 nM.
In the same order, the values of `O=C1CCC(N2Cc3cc(C[C@H]4CCCC[C@@H]4NC4CCC4)ccc3C2=O)C(=O)N1` (stereo partly drawn) [Example 48, 3-(5-(((1R,2S)-2-(cyclobutylamino)cyclohexyl)methyl)-1-oxoisoindolin-2-yl)piperidine-2,6-dione] are greater than 1000 nM, 96% and 24 nM.
On the same counts, the results for `O=C1CCC(N2Cc3cc(C[C@H]4CCCC[C@@H]4NCc4ccc(F)cn4)ccc3C2=O)C(=O)N1` (stereo partly drawn) [Example 49, 3-(5-(((1R,2S)-2-(((5-fluoropyridin-2-yl)methyl)amino)cyclohexyl)methyl)-1-oxoisoindolin-2-yl)piperidine-2,6-dione] are greater than 1000 nM, 66% and 88 nM.
On the same counts, the results for `O=C1CCC(N2Cc3cc(C[C@H]4CCCC[C@@H]4NCc4ncccc4F)ccc3C2=O)C(=O)N1` (stereo partly drawn) [Example 50, 3-(5-(((1R,2S)-2-(((3-fluoropyridin-2-yl)methyl)amino)cyclohexyl)methyl)-1-oxoisoindolin-2-yl)piperidine-2,6-dione] are greater than 1000 nM, 57% and 111 nM.
As to `O=C1CCC(N2Cc3cc(C[C@H]4CCCC[C@@H]4NCc4cncc(F)c4)ccc3C2=O)C(=O)N1` (stereo partly drawn) [Example 51, 3-(5-(((1R,2S)-2-(((5-fluoropyridin-3-yl)methyl)amino)cyclohexyl)methyl)-1-oxoisoindolin-2-yl)piperidine-2,6-dione], on IKZF1, the DC50 is greater than 1000 nM. In addition, on IKZF2, the Dmax came to 80% and the DC50 amounted to 45 nM.
On the same counts, the results for `CC(C)N[C@H]1CC=CC[C@@H]1Cc1ccc2c(c1)CN(C1CCC(=O)NC1=O)C2=O` (stereo partly drawn) [Example 54, 3-(5-(((1R,6S)-6-(isopropylamino)cyclohex-3-en-1-yl)methyl)-1-oxoisoindolin-2-yl)piperidine-2,6-dione] are greater than 1000 nM, 86% and 31 nM.
For the compound `O=C1CCC(N2Cc3cc(C[C@H]4CCCC[C@@H]4N4CC(c5ccccc5)C4)ccc3C2=O)C(=O)N1` (stereo partly drawn) [Example 55, 3-(1-oxo-5-(((1R,2S)-2-(3-phenylazetidin-1-yl)cyclohexyl)methyl)isoindolin-2-yl)piperidine-2,6-dione], the DC50 on IKZF1 is greater than 1000 nM; on IKZF2, 25 nM. This compound came in with a Dmax at IKZF2 of 87%.
In the case of `CC(C)(C)CN[C@H]1CCCC[C@@H]1Cc1ccc2c(c1)CN(C1CCC(=O)NC1=O)C2=O` (stereo partly drawn) [Example 57, 3-(5-(((1R,2S)-2-(neopentylamino)cyclohexyl)methyl)-1-oxoisoindolin-2-yl)piperidine-2,6-dione], the DC50 at IKZF1 is greater than 1000 nM; on IKZF2 it was 25 nM. For the same compound, on IKZF2, the greatest degradation seen (Dmax) turned out to be 89%.

The Dmax is the greatest extent of degradation seen. A high value points to deep degradation.
